The source of these data is patent publication US6025471A, “Diazaspiro, azepino and azabicyclo therapeutic peptides” (priority 1998, dated 2000).

Experiment [1] deals with growth hormone deficient rats. As to conditions: cited from earlier work.
In another experiment the test system is human heart membranes. Put plainly: binding of peptides on human heart membranes (displacement of radiolabelled peptide). As to conditions: FIG. 1. The text has this:
The binding abilities of certain peptides according to the invention compared to conventional peptides on human heart membranes are shown in FIG. 1. […]
Peptide A is in accordance with the invention, while peptides B-F are comparative. As shown in the figure, peptide A provided inhibition (i.e., displacement) of ^125 I-Tyr-Ala-His-D-Mrp-Ala-Trp-D-Phe-Lys-NH2 in a proportion of about 75%, whereas peptides B-F only provided about 5 to less than 35%. The greater binding affinities for the peptides of the invention illustrate that these peptides directly operate on specific receptors of heart tissue to achieve normalization of cardiac pressure.

Where a SMILES comes first, the peptide text is derived from it. [ ]: non-standard residue; d: D form. dTrp(2-Me) = Cc1[nH]c2ccccc2c1C[C@@H](N)C(=O)O

In the case of `Cc1[nH]c2ccccc2c1C[C@@H](NC(=O)[C@@H](N)Cc1cnc[nH]1)C(=O)N[C@@H](C)C(=O)N[C@@H](Cc1c[nH]c2ccccc12)C(=O)N[C@H](Cc1ccccc1)C(=O)N[C@@H](CCCCN)C(N)=O` [Hexarelin, His-D-2-methyl-Trp-Ala-Trp-D-Phe-Lys-NH2] (H-H[dTrp(2-Me)]AW[dF]K-NH2), the “effect on worsening of cardiac dysfunction” value in experiment [1] is “reverse the worsening of cardiac dysfunction”.
For the molecule “[S,S-Spiro(Pro-Leu )]-D-Mrp-D-Trp-Phe-Lys-NH2 [peptide A]”, the “inhibition (i.e., displacement) of 125I-Tyr-Ala-His-D-Mrp-Ala-Trp-D-Phe-Lys-NH2” value with human heart membranes is “about 75%”.
